# Test results: ChEMBL document CHEMBL3232809, “Synthesis, antibiotic activity and structure-activity relationship study of some 3-enaminetetramic acids” (2014)
# Tested on: Escherichia coli
# Assay: Antimicrobial activity against Escherichia coli ATCC 25922
# Format: functional
row,Structure (SMILES),MIC [µg/mL]
1,CCCCCCN/C(=C1/C(=O)CNC1=O)c1ccccc1,> 32
2,O=C1CNC(=O)/C1=C(\NC1CCCCC1)c1cccc2ccccc12,> 32
3,O=C1CNC(=O)/C1=C(\NCc1ccccc1)c1cccc2ccccc12,> 32
4,CCCCCCCCCCCCC/C(Nc1ccccc1)=C1\C(=O)CNC1=O,> 32
5,CCCCCC/C(Nc1ccc(N2CCOCC2)cc1)=C1\C(=O)CNC1=O,> 32
6,CCCCCCCCCCC/C(Nc1ccc(N)cc1)=C1\C(=O)CN(CCCCCC)C1=O,> 32

# Tested on: Enterococcus faecalis
# Assay: Antimicrobial activity against vancomycin-susceptible Enterococcus faecalis ATCC 29212
# Format: functional
row,Structure (SMILES),MIC [µg/mL]
1,CCCCCCN/C(=C1/C(=O)CNC1=O)c1ccccc1,> 32
2,O=C1CNC(=O)/C1=C(\NC1CCCCC1)c1cccc2ccccc12,> 32
3,O=C1CNC(=O)/C1=C(\NCc1ccccc1)c1cccc2ccccc12,> 32
4,CCCCCCCCCCCCC/C(Nc1ccccc1)=C1\C(=O)CNC1=O,> 32
5,CCCCCC/C(Nc1ccc(N2CCOCC2)cc1)=C1\C(=O)CNC1=O,> 32
6,CCCCCCCCCCC/C(Nc1ccc(N)cc1)=C1\C(=O)CN(CCCCCC)C1=O,> 32

# Tested on: Streptococcus pneumoniae
# Assay: Antimicrobial activity against penicillin- and erythromycin-resistant Streptococcus pneumoniae
# Format: functional
row,Structure (SMILES),MIC [µg/mL]
1,CCCCCCN/C(=C1/C(=O)CNC1=O)c1ccccc1,> 32
2,O=C1CNC(=O)/C1=C(\NC1CCCCC1)c1cccc2ccccc12,> 32
3,O=C1CNC(=O)/C1=C(\NCc1ccccc1)c1cccc2ccccc12,> 32
4,CCCCCCCCCCCCC/C(Nc1ccccc1)=C1\C(=O)CNC1=O,> 32
5,CCCCCC/C(Nc1ccc(N2CCOCC2)cc1)=C1\C(=O)CNC1=O,> 32
6,CCCCCCCCCCC/C(Nc1ccc(N)cc1)=C1\C(=O)CN(CCCCCC)C1=O,> 32

# Tested on: Streptococcus pneumoniae
# Assay: Antimicrobial activity against penicillin- and erythromycin-resistant Streptococcus pneumoniae in presence of 2.5% horse blood
# Format: functional
row,Structure (SMILES),MIC [µg/mL]
1,CCCCCCN/C(=C1/C(=O)CNC1=O)c1ccccc1,> 32
2,O=C1CNC(=O)/C1=C(\NC1CCCCC1)c1cccc2ccccc12,> 32
3,O=C1CNC(=O)/C1=C(\NCc1ccccc1)c1cccc2ccccc12,> 32
4,CCCCCCCCCCCCC/C(Nc1ccccc1)=C1\C(=O)CNC1=O,> 32
5,CCCCCC/C(Nc1ccc(N2CCOCC2)cc1)=C1\C(=O)CNC1=O,> 32
6,CCCCCCCCCCC/C(Nc1ccc(N)cc1)=C1\C(=O)CN(CCCCCC)C1=O,> 32

# Tested on: Haemophilus influenzae
# Assay: Antimicrobial activity against Haemophilus influenzae ATCC 31517 MMSA
# Format: functional
row,Structure (SMILES),MIC [µg/mL]
1,CCCCCCN/C(=C1/C(=O)CNC1=O)c1ccccc1,> 32
2,O=C1CNC(=O)/C1=C(\NC1CCCCC1)c1cccc2ccccc12,> 32
3,O=C1CNC(=O)/C1=C(\NCc1ccccc1)c1cccc2ccccc12,> 32
4,CCCCCCCCCCCCC/C(Nc1ccccc1)=C1\C(=O)CNC1=O,> 32
5,CCCCCC/C(Nc1ccc(N2CCOCC2)cc1)=C1\C(=O)CNC1=O,> 32
6,CCCCCCCCCCC/C(Nc1ccc(N)cc1)=C1\C(=O)CN(CCCCCC)C1=O,> 32

# Tested on: Staphylococcus aureus
# Assay: Antimicrobial activity against methicillin-sensitive Staphylococcus aureus ATCC 13709
# Format: functional
row,Structure (SMILES),MIC [µg/mL]
1,CCCCCCN/C(=C1/C(=O)CNC1=O)c1ccccc1,> 32
2,O=C1CNC(=O)/C1=C(\NC1CCCCC1)c1cccc2ccccc12,> 32
3,O=C1CNC(=O)/C1=C(\NCc1ccccc1)c1cccc2ccccc12,> 32
4,CCCCCCCCCCCCC/C(Nc1ccccc1)=C1\C(=O)CNC1=O,> 32
5,CCCCCC/C(Nc1ccc(N2CCOCC2)cc1)=C1\C(=O)CNC1=O,> 32
6,CCCCCCCCCCC/C(Nc1ccc(N)cc1)=C1\C(=O)CN(CCCCCC)C1=O,> 32

# Tested on: Enterococcus faecium
# Assay: Antimicrobial activity against vancomycin-resistant Enterococcus faecium
# Format: functional
row,Structure (SMILES),MIC [µg/mL]
1,CCCCCCN/C(=C1/C(=O)CNC1=O)c1ccccc1,> 32
2,O=C1CNC(=O)/C1=C(\NC1CCCCC1)c1cccc2ccccc12,> 32
3,O=C1CNC(=O)/C1=C(\NCc1ccccc1)c1cccc2ccccc12,> 32
4,CCCCCCCCCCCCC/C(Nc1ccccc1)=C1\C(=O)CNC1=O,> 32
5,CCCCCC/C(Nc1ccc(N2CCOCC2)cc1)=C1\C(=O)CNC1=O,> 32
6,CCCCCCCCCCC/C(Nc1ccc(N)cc1)=C1\C(=O)CN(CCCCCC)C1=O,> 32

# Tested on: Pseudomonas aeruginosa
# Assay: Antimicrobial activity against Pseudomonas aeruginosa ATCC 27853
# Format: functional
row,Structure (SMILES),MIC [µg/mL]
1,CCCCCCN/C(=C1/C(=O)CNC1=O)c1ccccc1,> 32
2,O=C1CNC(=O)/C1=C(\NC1CCCCC1)c1cccc2ccccc12,> 32
3,O=C1CNC(=O)/C1=C(\NCc1ccccc1)c1cccc2ccccc12,> 32
4,CCCCCCCCCCCCC/C(Nc1ccccc1)=C1\C(=O)CNC1=O,> 32
5,CCCCCC/C(Nc1ccc(N2CCOCC2)cc1)=C1\C(=O)CNC1=O,> 32
6,CCCCCCCCCCC/C(Nc1ccc(N)cc1)=C1\C(=O)CN(CCCCCC)C1=O,> 32

# Tested on: Staphylococcus aureus
# Assay: Antimicrobial activity against Staphylococcus aureus Oxford
# Format: functional
row,Structure (SMILES),MIC [µg/mL]
1,CCCCCCN/C(=C1/C(=O)CNC1=O)c1ccccc1,> 32
2,O=C1CNC(=O)/C1=C(\NC1CCCCC1)c1cccc2ccccc12,> 32
3,O=C1CNC(=O)/C1=C(\NCc1ccccc1)c1cccc2ccccc12,> 32
4,CCCCCCCCCCCCC/C(Nc1ccccc1)=C1\C(=O)CNC1=O,> 32
5,CCCCCC/C(Nc1ccc(N2CCOCC2)cc1)=C1\C(=O)CNC1=O,> 32
6,CCCCCCCCCCC/C(Nc1ccc(N)cc1)=C1\C(=O)CN(CCCCCC)C1=O,> 32

# Tested on: Haemophilus influenzae
# Assay: Antimicrobial activity against LS2 Efflux knock-out Haemophilus influenzae
# Format: functional
row,Structure (SMILES),MIC [µg/mL]
1,CCCCCCN/C(=C1/C(=O)CNC1=O)c1ccccc1,> 32
2,O=C1CNC(=O)/C1=C(\NC1CCCCC1)c1cccc2ccccc12,> 32
3,O=C1CNC(=O)/C1=C(\NCc1ccccc1)c1cccc2ccccc12,> 32
4,CCCCCCCCCCCCC/C(Nc1ccccc1)=C1\C(=O)CNC1=O,> 32
5,CCCCCC/C(Nc1ccc(N2CCOCC2)cc1)=C1\C(=O)CNC1=O,> 32
6,CCCCCCCCCCC/C(Nc1ccc(N)cc1)=C1\C(=O)CN(CCCCCC)C1=O,> 32

# Tested on: Staphylococcus aureus
# Assay: Antimicrobial activity against methicillin-resistant Staphylococcus aureus
# Format: functional
row,Structure (SMILES),MIC [µg/mL]
1,CCCCCCN/C(=C1/C(=O)CNC1=O)c1ccccc1,> 32
2,O=C1CNC(=O)/C1=C(\NC1CCCCC1)c1cccc2ccccc12,> 32
3,O=C1CNC(=O)/C1=C(\NCc1ccccc1)c1cccc2ccccc12,> 32
4,CCCCCCCCCCCCC/C(Nc1ccccc1)=C1\C(=O)CNC1=O,> 32
5,CCCCCC/C(Nc1ccc(N2CCOCC2)cc1)=C1\C(=O)CNC1=O,> 32
6,CCCCCCCCCCC/C(Nc1ccc(N)cc1)=C1\C(=O)CN(CCCCCC)C1=O,> 32

# Tested on: Escherichia coli
# Assay: Antimicrobial activity against Escherichia coli 50
# Format: functional
row,Structure (SMILES),MIC [µg/mL]
1,CCCCCCN/C(=C1/C(=O)CNC1=O)c1ccccc1,> 32
2,O=C1CNC(=O)/C1=C(\NC1CCCCC1)c1cccc2ccccc12,> 32
3,O=C1CNC(=O)/C1=C(\NCc1ccccc1)c1cccc2ccccc12,> 32
4,CCCCCCCCCCCCC/C(Nc1ccccc1)=C1\C(=O)CNC1=O,> 32
5,CCCCCC/C(Nc1ccc(N2CCOCC2)cc1)=C1\C(=O)CNC1=O,> 32
6,CCCCCCCCCCC/C(Nc1ccc(N)cc1)=C1\C(=O)CN(CCCCCC)C1=O,> 32

# Tested on: Streptococcus pneumoniae
# Assay: Antimicrobial activity against erythromycin-susceptible Streptococcus pneumoniae ATCC 49619
# Format: functional
row,Structure (SMILES),MIC [µg/mL]
1,CCCCCCN/C(=C1/C(=O)CNC1=O)c1ccccc1,> 32
2,O=C1CNC(=O)/C1=C(\NC1CCCCC1)c1cccc2ccccc12,> 32
3,O=C1CNC(=O)/C1=C(\NCc1ccccc1)c1cccc2ccccc12,> 32
4,CCCCCCCCCCCCC/C(Nc1ccccc1)=C1\C(=O)CNC1=O,> 32
5,CCCCCC/C(Nc1ccc(N2CCOCC2)cc1)=C1\C(=O)CNC1=O,> 32
6,CCCCCCCCCCC/C(Nc1ccc(N)cc1)=C1\C(=O)CN(CCCCCC)C1=O,> 32

# Tested on: Escherichia coli
# Assay: Antimicrobial activity against Escherichia coli 49
# Format: functional
row,Structure (SMILES),MIC [µg/mL]
1,CCCCCCN/C(=C1/C(=O)CNC1=O)c1ccccc1,> 32
2,O=C1CNC(=O)/C1=C(\NC1CCCCC1)c1cccc2ccccc12,> 32
3,O=C1CNC(=O)/C1=C(\NCc1ccccc1)c1cccc2ccccc12,> 32
4,CCCCCCCCCCCCC/C(Nc1ccccc1)=C1\C(=O)CNC1=O,> 32
5,CCCCCC/C(Nc1ccc(N2CCOCC2)cc1)=C1\C(=O)CNC1=O,> 32
6,CCCCCCCCCCC/C(Nc1ccc(N)cc1)=C1\C(=O)CN(CCCCCC)C1=O,> 32

# Tested on: Staphylococcus aureus
# Assay: Antimicrobial activity against vancomycin-susceptible Staphylococcus aureus ATCC 25923
# Format: functional
row,Structure (SMILES),MIC [µg/mL]
1,CCCCCCN/C(=C1/C(=O)CNC1=O)c1ccccc1,> 32
2,O=C1CNC(=O)/C1=C(\NC1CCCCC1)c1cccc2ccccc12,> 32
3,O=C1CNC(=O)/C1=C(\NCc1ccccc1)c1cccc2ccccc12,> 32
4,CCCCCCCCCCCCC/C(Nc1ccccc1)=C1\C(=O)CNC1=O,> 32
5,CCCCCC/C(Nc1ccc(N2CCOCC2)cc1)=C1\C(=O)CNC1=O,> 32
6,CCCCCCCCCCC/C(Nc1ccc(N)cc1)=C1\C(=O)CN(CCCCCC)C1=O,> 32
